Laboratory results reported in paper PMC6315362, “Cytotoxic Potential of the Novel Horseshoe Crab Peptide Polyphemusin III” (Marine Drugs, 2018).
Where a SMILES comes first, the peptide text is derived from it. Bridges are numbered along the chain shown (N, C = ends).

Legend:
[1] = RP-HPLC retention time as measure of hydrophobicity; type: physicochemical; details: semi-preparative RP-HPLC, C18 column, linear gradient 5 to 80% (v/v) acetonitrile in water with 0.1% TFA within 1 h; used as indicator of hydrophobicity
Description: The PM III IC50 values were lower than those determined for PM I and PM II. We speculate that the higher cytotoxicity of PM III might be due to its higher hydrophobicity. In comparison to other tested peptides, the retention time of PM III measured during RP-HPLC indicated its higher hydrophobicity (Table 1). […] Increased hydrophobicity of these analogs caused higher cytotoxic effects. […] Cell membranes contain different phospholipids, which sustain the amphipathic features due to the formation of hydrophilic and hydrophobic domains in the membrane structure. Well-known differences between the composition of bacterial and mammalian cell membranes provide the evidence for selectivity of the peptides’ action. Bacterial membranes predominantly consist of phosphatidylserine, phosphatidylglycerol, and cardiolipin having a net negative charge. Tumor cell bilayers are also enriched in anionic molecules, such as phosphatidylserine, sialylated gangliosides, O-glycosylated mucins, and heparin sulfate. In contrast, zwitterionic phospholipids—phosphatidylcholine, phosphatidylethanolamine, and sphingomyelin—are abundant in the cytoplasmic membranes of non-cancer mammalian cells. Electrically neutral normal mammalian membranes prevent their recognition by positively charged antimicrobial peptides, and binding to these membranes is enabled by hydrophobic interactions. Thus, modulation of hydrophobicity of antimicrobial peptides, and also peptoid molecules, may be followed by non-specific interaction with erythrocytes as it was shown in previously published studies. […] Suboptimal high hydrophobic properties may not only result in increased toxicity to erythrocytes, but even in a reduction of antibacterial activity. Several protegrin-1 synthetic analogs with different hydrophobicities were characterized earlier. The analog with substitutions of valine by leucine that was more hydrophobic than naturally occurring protegrin-1 and the analog with substitutions of valine by fluorinated leucine had the most hydrophobic properties than other tested peptides. […] Therefore, half-hemolysis concentration and IC50 effective concentration were in different ranges.

human red blood cells = experiment: Hemolytic activity assay; type: cell-based; details: for hemolysis at the maximal concentration: 100 µM peptide, human red blood cells 4% (v/v) in PBS pH 7.4, 1.5 h 37 °C, 0.1% Triton X-100 = 100%
Protocol: Testing of the hemolytic activity of polyphemusins and tachyplesins was performed using fresh human red blood cells (hBRC). Permeabilization of erythrocyte cytoplasmic membrane results in lysis followed by the release of hemoglobin. hBRC were washed three times with phosphate buffered saline (PBS: 10 mM Na2HPO4, 1.76 mM K2HPO4, pH 7.4, containing […], and 2.7 mM KCl). Two-fold serial dilutions of the peptide solutions were added to 50 μL aliquots of hRBC in the 96-well microplate. The final hBRC concentration was of 4% (v/v) in each well, and the final volume of suspension was 100 μL. After incubation of suspensions for 1.5 h at 37 °C under stirring at 1000 rpm, centrifugation of plates was done at 700 g for 5 min. The supernatant 50 μL aliquots were then transferred into flat-bottomed 96-well microplates. The absorbance at 405 nm was measured in a microplate reader (Eppendorf, Hamburg, Germany), allowing the detection of hemoglobin release. 0.1% Triton X-100 caused a complete lysis of erythrocytes, thus hBRC treated with Triton X-100 were used as a positive control. […] The percentage of hemolysis was calculated using the following Equation (1):Hemolysis (%) = (OD405 sample − OD405 0% lysis control)/(OD405 100% lysis control − OD405 0% lysis control) × 100%(1)
The quantitative data resulted from two series of experiments were represented as average means with standard deviations. The experiments were carried out using hBRC obtained from human blood samples of independent donors.

B. subtilis B-886 = experiment: Antimicrobial assay, broth microdilution MIC; type: cell-based, Bacillus subtilis; details: B. subtilis B-886, Gram +, MH medium with NaCl, 24 h 37 °C, median of three independent triplicated experiments
Protocol: Bacterial test cultures were grown in the Mueller-Hinton (MH) medium at 37 °C to mid-log phase and then diluted with the 2 x MH medium supplemented with 1.8% NaCl. 50 µL of the bacterial suspension with a final cell concentration of 10^6 CFU/mL were added to aliquots of 50 µL of the peptide solutions and serially diluted with sterilized 0.1% bovine serum albumin in 96-well flat-bottom polystyrene microplates (Eppendorf, Hamburg, Germany). Bacterial cells were incubated for 24 h at 37 °C and 900 rpm on the plate thermoshaker (Biosan, Riga, Latvia). The minimum inhibitory concentrations (MIC) were determined as the lowest peptide concentration that prevented growth of a test microorganism observed as visible turbidity. The results were expressed as median values of three independent triplicated experiments. Assessment of antimicrobial activities of the recombinant PM III, other polyphemusins, and tachyplesins was conducted against Gram-negative (Escherichia coli ML-35p, Klebsiella pneumoniae (clinical isolate, CI 287), Pseudomonas aeruginosa PAO1) and Gram-positive (Staphylococcus aureus ATCC 29213, Staphylococcus aureus 209P, Bacillus subtilis B-886, Micrococcus luteus B-1314) bacteria.

| Structure (SMILES) | RP-HPLC Retention Time [1] [min] | hemolysis at the maximal concentration (human red blood cells) | MICs (B. subtilis B-886) [µM] | HC50 relative to IC50 measured for the HL-60 cell line (human red blood cells; HC50 / IC50 (HL-60)) [fold] | half-hemolysis concentration (HC50) (human red blood cells; fresh human red blood cells 4% (v/v) in PBS pH 7.4, 1.5 h 37 °C, absorbance 405 nm, two independent series of triplicated experiments) [µM] |
| --- | --- | --- | --- | --- | --- |
| CC[C@H](C)[C@@H]1NC(=O)CNC(=O)[C@H](CCCNC(=N)N)NC(=O)[C@H](Cc2ccc(O)cc2)NC(=O)[C@@H]2CSSC[C@H](NC1=O)C(=O)N[C@@H](Cc1ccc(O)cc1)C(=O)N[C@@H](CCCNC(=N)N)C(=O)N[C@@H](CCCNC(=N)N)C(=O)N[C@H](C(=O)N[C@@H](CCCNC(=N)N)C(=O)O)CSSC[C@H](NC(=O)[C@H](Cc1c[nH]c3ccccc13)NC(=O)[C@@H](N)CCCCN)C(=O)N[C@@H](Cc1ccccc1)C(=O)N[C@@H](CCCNC(=N)N)C(=O)N[C@@H](C(C)C)C(=O)N2 [TP I, tachyplesin I] (H-KWCFRVCYRGICYRRCR-OH; disulfide 3-16, 7-12 (inferred); N-terminus assumed) | 35.5 | 38% | 0.5 |  |  |
| CC(C)[C@@H]1NC(=O)[C@H](CCCNC(=N)N)NC(=O)[C@H](Cc2ccccc2)NC(=O)[C@@H](NC(=O)[C@H](Cc2c[nH]c3ccccc23)NC(=O)[C@H](CCCNC(=N)N)NC(=O)[C@@H](N)CCCNC(=N)N)CSSC[C@@H](C(=O)N[C@@H](CCCNC(=N)N)C(=O)O)NC(=O)[C@H](CCCCN)NC(=O)[C@H](CCCNC(=N)N)NC(=O)[C@H](Cc2ccc(O)cc2)NC(=O)[C@@H]2CSSC[C@H](NC1=O)C(=O)N[C@@H](Cc1ccc(O)cc1)C(=O)N[C@@H](CCCCN)C(=O)NCC(=O)N[C@@H](Cc1ccccc1)C(=O)N2 [PM II, polyphemusin II] (H-RRWCFRVCYKGFCYRKCR-OH; disulfide 4-17, 8-13 (inferred); N-terminus assumed) | 35.4 | ~ 30% | 0.5 |  |  |
| CC(C)[C@@H]1NC(=O)[C@H](CCCNC(=N)N)NC(=O)[C@H](Cc2ccccc2)NC(=O)[C@@H](NC(=O)[C@H](Cc2c[nH]c3ccccc23)NC(=O)[C@H](CCCNC(=N)N)NC(=O)[C@@H](N)CCCNC(=N)N)CSSC[C@@H](C(=O)N[C@@H](CCCNC(=N)N)C(=O)O)NC(=O)[C@H](CCCCN)NC(=O)[C@H](CCCNC(=N)N)NC(=O)[C@H](Cc2ccc(O)cc2)NC(=O)[C@@H]2CSSC[C@H](NC1=O)C(=O)N[C@@H](Cc1ccc(O)cc1)C(=O)N[C@@H](CCCNC(=N)N)C(=O)NCC(=O)N[C@@H](Cc1ccccc1)C(=O)N2 [PM I, polyphemusin I] (H-RRWCFRVCYRGFCYRKCR-OH; disulfide 4-17, 8-13 (inferred); N-terminus assumed) | 35.5 | ~ 45% | 0.25 |  |  |
| CC(C)[C@@H]1NC(=O)[C@H](CCCNC(=N)N)NC(=O)[C@H](Cc2ccccc2)NC(=O)[C@@H](NC(=O)CNC(=O)[C@H](CCCNC(=N)N)NC(=O)[C@@H](N)CCCNC(=N)N)CSSC[C@@H](C(=O)N[C@@H](CCCNC(=N)N)C(=O)O)NC(=O)[C@H](CCCNC(=N)N)NC(=O)[C@H](CCC(N)=O)NC(=O)[C@H](Cc2ccccc2)NC(=O)[C@@H]2CSSC[C@H](NC1=O)C(=O)N[C@@H](Cc1ccc(O)cc1)C(=O)N[C@@H](CCCNC(=N)N)C(=O)NCC(=O)N[C@@H](Cc1ccccc1)C(=O)N2 [PM III, polyphemusin III] (H-RRGCFRVCYRGFCFQRCR-OH; disulfide 4-17, 8-13 (inferred); N-terminus assumed) | 36.2 |  | 0.5 | 18 | 46 |
| CC[C@H](C)[C@@H]1NC(=O)CNC(=O)[C@H](CCCNC(=N)N)NC(=O)[C@H](Cc2ccc(O)cc2)NC(=O)[C@@H]2CSSC[C@H](NC1=O)C(=O)N[C@@H](Cc1ccc(O)cc1)C(=O)N[C@@H](CCCNC(=N)N)C(=O)N[C@@H](CCCCN)C(=O)N[C@H](C(=O)N[C@@H](CCCNC(=N)N)C(=O)O)CSSC[C@H](NC(=O)[C@H](Cc1c[nH]c3ccccc13)NC(=O)[C@@H](N)CCCNC(=N)N)C(=O)N[C@@H](Cc1ccccc1)C(=O)N[C@@H](CCCNC(=N)N)C(=O)N[C@@H](C(C)C)C(=O)N2 [TP II, tachyplesin II] (H-RWCFRVCYRGICYRKCR-OH; disulfide 3-16, 7-12 (inferred); N-terminus assumed) | 35.9 | 33% | 0.5 |  |  |
| CC[C@H](C)[C@@H]1NC(=O)CNC(=O)[C@H](CCCNC(=N)N)NC(=O)[C@H](Cc2ccc(O)cc2)NC(=O)[C@@H]2CSSC[C@H](NC1=O)C(=O)N[C@@H](Cc1ccc(O)cc1)C(=O)N[C@@H](CCCNC(=N)N)C(=O)N[C@@H](CCCCN)C(=O)N[C@H](C(=O)N[C@@H](CCCNC(=N)N)C(=O)O)CSSC[C@H](NC(=O)[C@H](Cc1c[nH]c3ccccc13)NC(=O)[C@@H](N)CCCCN)C(=O)N[C@@H](Cc1ccccc1)C(=O)N[C@@H](CCCNC(=N)N)C(=O)N[C@@H](C(C)C)C(=O)N2 [TP III, tachyplesin III] (H-KWCFRVCYRGICYRKCR-OH; disulfide 3-16, 7-12 (inferred); N-terminus assumed) | 35.5 | 20% | 1 |  |  |
